Assays:
human skin [1] = conditions: both, in vivo
human skin [2] = conditions: 107 subjects
Description: Subjects fulfilled specific inclusion criteria including not being pregnant or breastfeeding, being over 18 years old, having healthy skin, and not having used any dermatological or cosmetic preparation on the test area within 5 days before the beginning of the study.
Briefly, the tested hydrogels were applied under occlusion on the outer aspect of the upper arm for a defined time. The applications were repeated 9 times over a period of 3 consecutive weeks, a duration necessary for the possible induction of an immune response. The irritancy potential was evaluated and compared to the irritancy potential of the standard, SLS. After a two-week rest period with no treatment, the tested hydrogels were applied under occlusion to the induction site and to a virgin site on the volar side of the underarm for a defined period of time to trigger a possible immune response.
The final pH of the hydrogels was adjusted to about 5.5.
Possible skin reactions to the products were scored according to the scale reproduced in Table 5 above.
In summary, the test product is considered to have a low sensitization potential if none of the subjects reported a grade 2 or higher dermal response on days 38 to 40 and no more than two subjects reported a grade 1 dermal response on days 38 to 40. A moderate sensitization potential is assigned if a maximum of 2 subjects reported a grade 2 or higher dermal response on days 38 to 40 and a maximum of 4 subjects reported a grade 1 response on days 38 to 40. A high sensitization potential is assigned if 3 or more subjects reported a grade 2 or higher dermal response on days 38 to 40 and 5 or more subjects reported a grade 1 response on days 38 to 40.
The cumulative irritancy score represents the sum of the irritancy scores assigned on days 3, 5, 8, 10, 12, 15, 17, 19, and 22. […] An irritancy score was assigned to each induction and virgin site on days 36, 38, 39 and 40, and their respective scores were added up separately to produce the cumulative irritancy score presented in the fourth column of Table 10. The fifth and sixth columns indicate the number of subjects that experienced a grade 2 or greater response on each of days 38, 39 and 40, and the number of subjects that experienced a grade 1 response on each of days 38, 39, and 40.

[3] = Uptake rates of active agents into hydrogel samples; type: physicochemical; conditions: for time to reach the same concentration in the hydrogel as the uptake solution: 1 mm hydrogel samples, methylene blue 1 ppm, p-nitrophenol 0.4 wt. %
Procedure: Uptake solutions of methylene blue (1 ppm) and p-nitrophenol (0.4 wt. %) were prepared. […] The hydrogels were then carefully blotted of excess solution and were each transferred into a second beaker containing 30 ml of a 10 mM phosphate buffer solution with a pH of 6 to equilibrate.
The hydrogels were continuously agitated to ensure that the equilibrium state was reached. The uptake of p-nitrophenol and methylene blue was assumed to correspond to the amount that was released into the washing buffer solution. […] Methylene blue was similarly measured at 655 nm and the calibration curve was in the range of 0.0025 ppm to 3 ppm.

concentration in hydrogel relative to the initial uptake solution ([3]; within an hour)	SMILES	C: Glazing with peeling & cracking, number of subjects (human skin [1])	D: Glazing with fissures, number of subjects (human skin [1])	E: Film of dried serious exudate covering all or part of the patch site, number of subjects (human skin [1])	F: Small petechial erosions and/or scabs, number of subjects (human skin [1])	Maximum single score (human skin [1])	Maximum sum (human skin [1])	Minimum single score (human skin [1])	Minimum sum (human skin [1])	N (reacting subjects) (human skin [1])	Slight itch, number of subjects (human skin [1])	Sum of scores for dermal reactions (human skin [1])	Cumulative Irritancy Score (human skin [2]; 22-day induction phase)	Number of reacting subjects (human skin [2]; 22-day induction phase)	Type of Reactivity (human skin [2]; 22-day induction phase)	subjects with slight glazed appearance and/or marked glazing (human skin [2]; induction phase)	time to reach the same concentration in the hydrogel as the uptake solution [3]
	CCCCCCCCCCCCOS(=O)(=O)[O-].[Na+] [Positive Control, sodium lauryl sulphate]	0	0	0	0	1	3	0	0	19	0	23.00	21	11	Minimal erythema	20	
6 times	CN(C)c1ccc2nc3ccc(=[N+](C)C)cc-3sc2c1 [methylene blue]																less than 1.50 minutes
	O=[N+]([O-])c1ccc(O)cc1 [p-nitrophenol]																about 15 minutes

From patent US20050214376A1, “Hydrogel-containing medical articles and methods of using and making the same” (priority 2003, published 2005)
